ChEMBL document CHEMBL4118135, “Optimized allosteric inhibition of engineered protein tyrosine phosphatases with an expanded palette of biarsenical small molecules” (Bioorg Med Chem, 2018)
Numbering of substitutions follows the chain as printed. The source made the active and inactive calls. The calls are words filed in the database; no cut-off is given here.

What was measured:
[1] = tested on: T1, Tyrosine-protein phosphatase non-receptor type 1 (Homo sapiens), P18031 [P87C,A122C]; experiment: Inhibition of allosterically sensitized His6-tagged human PTP1B catalytic domain P87C/A122C mutant at 250 nM using pNPP as substrate incubated for 90 mins by quenched phosphatase activity assay
T1 sequence (whole entry): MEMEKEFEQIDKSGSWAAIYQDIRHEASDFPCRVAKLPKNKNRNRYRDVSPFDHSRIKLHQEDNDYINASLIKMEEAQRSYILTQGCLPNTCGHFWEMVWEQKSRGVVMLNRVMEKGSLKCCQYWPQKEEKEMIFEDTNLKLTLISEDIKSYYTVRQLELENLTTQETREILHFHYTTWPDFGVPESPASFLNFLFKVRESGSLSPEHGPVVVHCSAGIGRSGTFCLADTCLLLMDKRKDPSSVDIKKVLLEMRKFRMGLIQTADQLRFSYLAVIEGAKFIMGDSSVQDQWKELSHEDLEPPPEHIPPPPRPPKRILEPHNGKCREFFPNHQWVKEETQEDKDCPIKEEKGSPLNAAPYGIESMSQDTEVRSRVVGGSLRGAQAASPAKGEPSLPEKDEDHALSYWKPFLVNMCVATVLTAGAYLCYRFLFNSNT

[2] = tested on: T2, Tyrosine-protein phosphatase non-receptor type 7 (Homo sapiens), P35236 [P171C,V205C]; experiment: Inhibition of allosterically sensitized mutant form of His6-tagged human HePTP catalytic domain at 500 nM using pNPP as substrate incubated for 90 mins by quenched phosphatase activity assay
T2 sequence (whole entry): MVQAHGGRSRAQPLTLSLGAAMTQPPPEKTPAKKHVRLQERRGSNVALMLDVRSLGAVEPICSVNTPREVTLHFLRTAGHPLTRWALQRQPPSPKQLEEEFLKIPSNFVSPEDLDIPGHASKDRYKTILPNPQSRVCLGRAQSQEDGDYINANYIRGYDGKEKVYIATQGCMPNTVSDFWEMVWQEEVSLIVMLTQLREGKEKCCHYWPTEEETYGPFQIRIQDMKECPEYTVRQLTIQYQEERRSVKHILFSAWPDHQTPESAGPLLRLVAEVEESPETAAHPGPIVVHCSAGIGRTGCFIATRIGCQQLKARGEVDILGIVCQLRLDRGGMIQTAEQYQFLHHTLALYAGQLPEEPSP

Homo sapiens = organism: Homo sapiens; experiment: Inhibition of His6-tagged human wild-type PTP catalytic domain at 500 nM using pNPP as substrate incubated for 90 mins by quenched phosphatase activity assay
[3] = target: Tyrosine-protein phosphatase non-receptor type 6 (Homo sapiens) (UniProt P29350); experiment: Inhibition of allosterically sensitized mutant form of His6-tagged human SHP1 catalytic domain at 500 nM using pNPP as substrate incubated for 90 mins by quenched phosphatase activity assay
[4] = target: T3, Tyrosine-protein phosphatase non-receptor type 11 (Homo sapiens) (UniProt Q06124); experiment: Inhibition of allosterically sensitized mutant form of His6-tagged human SHP2 catalytic domain at 500 nM at 500 nM using pNPP as substrate incubated for 90 mins by quenched phosphatase activity assay
T3 sequence (whole entry): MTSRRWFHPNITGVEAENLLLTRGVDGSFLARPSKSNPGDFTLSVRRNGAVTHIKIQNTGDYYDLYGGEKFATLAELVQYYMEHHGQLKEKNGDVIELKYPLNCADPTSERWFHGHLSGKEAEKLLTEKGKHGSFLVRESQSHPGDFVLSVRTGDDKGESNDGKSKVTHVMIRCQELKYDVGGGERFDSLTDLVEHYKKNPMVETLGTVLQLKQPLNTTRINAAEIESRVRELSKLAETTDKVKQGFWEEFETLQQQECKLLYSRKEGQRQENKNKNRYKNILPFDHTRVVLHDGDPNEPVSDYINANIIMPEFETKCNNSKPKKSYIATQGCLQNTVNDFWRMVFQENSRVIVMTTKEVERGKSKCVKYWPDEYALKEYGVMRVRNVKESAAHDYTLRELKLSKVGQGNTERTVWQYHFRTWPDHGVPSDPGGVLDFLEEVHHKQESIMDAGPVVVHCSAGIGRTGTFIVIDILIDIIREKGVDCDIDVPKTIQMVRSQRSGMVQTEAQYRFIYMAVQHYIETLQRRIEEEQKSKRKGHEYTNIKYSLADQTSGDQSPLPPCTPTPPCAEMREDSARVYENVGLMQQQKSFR

[5] = target: Tyrosine-protein phosphatase non-receptor type 13 (Homo sapiens) (UniProt Q12923); experiment: Inhibition of allosterically sensitized mutant form of His6-tagged human FAP1 catalytic domain at 500 nM using pNPP as substrate incubated for 90 mins by quenched phosphatase activity assay
[6] = target: T3, Tyrosine-protein phosphatase non-receptor type 11 (Homo sapiens); experiment: Inhibition of allosterically sensitized mutant form of His6-tagged human SHP2 containing SHP1 and […] SH2 domain at 500 nM at 500 nM using pNPP as substrate incubated for 90 mins by quenched phosphatase activity assay
[7] = tested on: Tyrosine-protein phosphatase non-receptor type 7 (Homo sapiens), P35236 [UNDEFINED MUTATION]; experiment: Inhibition of allosterically sensitized mutant form of His6-tagged human wild-type HePTP catalytic domain at 1.92 uM using pNPP as substrate incubated for 90 mins by quenched phosphatase activity assay
[8] = tested on: T2, Tyrosine-protein phosphatase non-receptor type 7 (Homo sapiens), P35236 [P171C,V205C]; experiment: Inhibition of allosterically sensitized mutant form of His6-tagged human HePTP catalytic domain using pNPP as substrate incubated for 90 mins by quenched phosphatase activity assay
[9] = target: T4, Tyrosine-protein phosphatase non-receptor type 7 (Homo sapiens) (UniProt P35236); experiment: Inhibition of His6-tagged human wild-type HePTP catalytic domain at 1 uM using pNPP as substrate incubated for 90 mins by quenched phosphatase activity assay
T4 sequence (whole entry): T2 sequence (whole entry) with C171P, C205V

[10] = tested on: T2, Tyrosine-protein phosphatase non-receptor type 7 (Homo sapiens), P35236 [P171C,V205C]; experiment: Inhibition of allosterically sensitized mutant form of His6-tagged human HePTP catalytic domain at 1 uM using pNPP as substrate measured up to 10 mins by quenched phosphatase activity assay

Sequence of Tyrosine-protein phosphatase non-receptor type 7 (Homo sapiens), P35236 [UNDEFINED MUTATION] (P35236 whole entry, looked up, stated change not applied, the tested form may be a part): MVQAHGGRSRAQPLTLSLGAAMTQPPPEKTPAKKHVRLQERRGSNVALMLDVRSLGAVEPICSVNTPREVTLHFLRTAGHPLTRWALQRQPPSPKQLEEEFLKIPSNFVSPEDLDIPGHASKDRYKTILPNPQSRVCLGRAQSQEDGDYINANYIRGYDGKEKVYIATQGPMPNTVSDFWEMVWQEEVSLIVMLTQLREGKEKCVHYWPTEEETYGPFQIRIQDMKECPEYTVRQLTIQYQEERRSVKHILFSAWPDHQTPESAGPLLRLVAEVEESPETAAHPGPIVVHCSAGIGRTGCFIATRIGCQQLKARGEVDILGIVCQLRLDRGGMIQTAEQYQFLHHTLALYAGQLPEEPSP
Sequence of Tyrosine-protein phosphatase non-receptor type 13 (Homo sapiens) (Q12923 whole entry, the tested form may be a part): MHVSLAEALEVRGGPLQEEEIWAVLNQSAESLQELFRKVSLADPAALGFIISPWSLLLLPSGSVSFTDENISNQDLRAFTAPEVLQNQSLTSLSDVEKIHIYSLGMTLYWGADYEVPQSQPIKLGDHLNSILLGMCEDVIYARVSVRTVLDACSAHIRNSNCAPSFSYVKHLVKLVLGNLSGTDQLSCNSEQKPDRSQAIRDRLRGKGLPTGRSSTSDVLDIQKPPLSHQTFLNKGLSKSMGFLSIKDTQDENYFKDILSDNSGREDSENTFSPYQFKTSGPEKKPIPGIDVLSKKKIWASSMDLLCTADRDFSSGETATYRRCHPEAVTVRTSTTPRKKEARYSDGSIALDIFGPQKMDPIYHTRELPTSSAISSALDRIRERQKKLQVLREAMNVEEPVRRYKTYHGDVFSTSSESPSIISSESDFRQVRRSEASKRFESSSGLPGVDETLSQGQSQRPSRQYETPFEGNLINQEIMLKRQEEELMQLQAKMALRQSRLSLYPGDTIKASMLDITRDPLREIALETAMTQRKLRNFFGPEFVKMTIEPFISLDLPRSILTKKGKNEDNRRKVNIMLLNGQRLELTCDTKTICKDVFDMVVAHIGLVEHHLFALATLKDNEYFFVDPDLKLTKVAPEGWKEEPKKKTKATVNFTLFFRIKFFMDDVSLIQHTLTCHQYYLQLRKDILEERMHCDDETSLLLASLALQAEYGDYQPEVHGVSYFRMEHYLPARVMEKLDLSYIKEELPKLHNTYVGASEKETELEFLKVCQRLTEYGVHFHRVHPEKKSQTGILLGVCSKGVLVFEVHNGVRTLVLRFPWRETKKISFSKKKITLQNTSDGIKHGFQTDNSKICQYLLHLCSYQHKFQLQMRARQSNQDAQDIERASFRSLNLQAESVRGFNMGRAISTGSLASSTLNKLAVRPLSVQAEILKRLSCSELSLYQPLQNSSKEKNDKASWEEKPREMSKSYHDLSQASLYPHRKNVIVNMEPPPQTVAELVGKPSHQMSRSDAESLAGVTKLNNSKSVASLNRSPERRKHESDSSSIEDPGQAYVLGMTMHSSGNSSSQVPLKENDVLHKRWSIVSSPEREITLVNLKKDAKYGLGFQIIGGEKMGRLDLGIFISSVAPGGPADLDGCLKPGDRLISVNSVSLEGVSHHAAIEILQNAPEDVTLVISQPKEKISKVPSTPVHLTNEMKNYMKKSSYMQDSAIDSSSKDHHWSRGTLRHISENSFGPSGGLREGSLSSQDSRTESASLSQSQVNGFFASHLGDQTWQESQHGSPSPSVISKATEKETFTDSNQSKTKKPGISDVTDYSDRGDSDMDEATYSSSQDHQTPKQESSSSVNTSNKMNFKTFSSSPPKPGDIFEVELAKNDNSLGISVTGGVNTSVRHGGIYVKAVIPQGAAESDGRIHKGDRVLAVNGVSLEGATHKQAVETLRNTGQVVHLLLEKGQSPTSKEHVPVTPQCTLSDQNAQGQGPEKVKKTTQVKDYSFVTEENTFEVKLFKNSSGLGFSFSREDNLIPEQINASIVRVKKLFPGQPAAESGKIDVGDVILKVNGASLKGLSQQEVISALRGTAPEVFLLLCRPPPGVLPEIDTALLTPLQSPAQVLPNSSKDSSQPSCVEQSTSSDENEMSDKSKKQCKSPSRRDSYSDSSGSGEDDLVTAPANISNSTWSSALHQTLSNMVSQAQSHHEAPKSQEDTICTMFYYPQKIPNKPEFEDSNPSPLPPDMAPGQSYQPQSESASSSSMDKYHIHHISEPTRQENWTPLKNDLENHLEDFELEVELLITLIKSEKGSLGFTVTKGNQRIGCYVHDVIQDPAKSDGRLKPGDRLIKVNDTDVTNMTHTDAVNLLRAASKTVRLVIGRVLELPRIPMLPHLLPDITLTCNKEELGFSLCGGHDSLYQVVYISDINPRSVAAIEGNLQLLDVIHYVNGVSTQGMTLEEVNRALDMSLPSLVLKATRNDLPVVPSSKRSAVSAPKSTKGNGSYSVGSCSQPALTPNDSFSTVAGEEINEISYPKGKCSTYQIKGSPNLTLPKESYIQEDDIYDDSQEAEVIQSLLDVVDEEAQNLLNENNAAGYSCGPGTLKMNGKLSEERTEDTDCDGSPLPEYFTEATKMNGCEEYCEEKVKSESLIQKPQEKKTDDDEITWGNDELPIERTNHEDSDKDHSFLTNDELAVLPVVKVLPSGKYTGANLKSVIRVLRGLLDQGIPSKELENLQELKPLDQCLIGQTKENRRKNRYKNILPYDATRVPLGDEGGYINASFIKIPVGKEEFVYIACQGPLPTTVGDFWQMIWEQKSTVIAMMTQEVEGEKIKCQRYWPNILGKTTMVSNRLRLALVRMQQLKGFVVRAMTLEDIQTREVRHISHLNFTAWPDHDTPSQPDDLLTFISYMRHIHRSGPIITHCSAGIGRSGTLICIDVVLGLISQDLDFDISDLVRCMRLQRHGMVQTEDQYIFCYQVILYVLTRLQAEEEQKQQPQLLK
Sequence of Tyrosine-protein phosphatase non-receptor type 6 (Homo sapiens) (P29350 whole entry, the tested form may be a part): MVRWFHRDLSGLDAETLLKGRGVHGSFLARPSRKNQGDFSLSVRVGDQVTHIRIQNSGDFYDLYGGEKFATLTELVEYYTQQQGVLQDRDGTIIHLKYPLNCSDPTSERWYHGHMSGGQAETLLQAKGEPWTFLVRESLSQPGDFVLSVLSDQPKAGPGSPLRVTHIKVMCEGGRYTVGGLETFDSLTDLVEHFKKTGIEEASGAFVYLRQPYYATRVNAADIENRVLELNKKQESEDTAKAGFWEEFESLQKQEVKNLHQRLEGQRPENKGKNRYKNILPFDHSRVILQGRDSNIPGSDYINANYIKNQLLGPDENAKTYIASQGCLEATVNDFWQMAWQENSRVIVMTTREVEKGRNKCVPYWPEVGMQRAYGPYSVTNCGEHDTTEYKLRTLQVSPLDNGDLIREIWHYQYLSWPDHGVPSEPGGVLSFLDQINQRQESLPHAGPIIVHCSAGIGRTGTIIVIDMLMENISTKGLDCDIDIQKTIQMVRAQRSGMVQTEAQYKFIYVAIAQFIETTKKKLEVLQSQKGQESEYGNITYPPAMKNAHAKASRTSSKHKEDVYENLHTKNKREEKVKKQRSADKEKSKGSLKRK

CC1(C)C(/C=C/C=C/C=C2/N(CCCCS(=O)(=O)O)c3ccc([As]4SCCS4)cc3C2(C)C)=[N+](CCCCS(=O)(=O)O)c2ccc([As]3SCCS3)cc21
inhibition [1]: Active | inhibition [2]: Active | inhibition (Homo sapiens): Active | inhibition [3]: Active | inhibition [4]: inactive | inhibition [5]: Active | inhibition [6]: inactive

O=C(O)c1ccc(-c2c3ccc(=O)c([As]4SCCS4)c-3oc3c([As]4SCCS4)c(O)ccc23)c(C(=O)O)c1
inhibition [7]: Active

CCc1cc2c(-c3ccccc3C(=O)O)c3cc(CC)c(=O)c([As]4SCCS4)c-3oc2c([As]2SCCS2)c1O
inhibition [7]: Active

O=c1ccc2nc3ccc(O)c([As]4SCCS4)c3oc-2c1[As]1SCCS1
inhibition [1]: Active | inhibition [2]: Active | inhibition (Homo sapiens): Active | inhibition [8]: Dose-dependent effect | inhibition [9]: inactive | inhibition [10]: 50% | inhibition [3]: Active | inhibition [5]: Active

CCCCNC(=O)c1ccc(-c2c3ccc(=O)c([As]4SCCS4)c-3oc3c([As]4SCCS4)c(O)ccc23)c(C(=O)O)c1
inhibition [7]: Active

O=C(O)c1ccccc1-c1c2cc(F)c(=O)c([As]3SCCS3)c-2oc2c([As]3SCCS3)c(O)c(F)cc12
inhibition [7]: Active

O=C(O)c1ccccc1-c1c2cc(Cl)c(=O)c([As]3SCCS3)c-2oc2c([As]3SCCS3)c(O)c(Cl)cc12
inhibition [7]: Active

O=C(O)c1c(F)c(F)c(F)c(F)c1-c1c2ccc(=O)c([As]3SCCS3)c-2oc2c([As]3SCCS3)c(O)ccc12
inhibition [7]: Active
